Columns and labels:
[1] = system: plasma cortisol; assay: Phase I rising single-dose safety and tolerance study, metered dose inhaler, 24-hour plasma cortisol; format: in vivo, healthy male volunteers
Procedure: Several Phase I studies were conducted using mometasone furoate formulated for delivery as a suspension in a pressurized metered dose inhaler (MDI). In a randomized, third-party blinded, placebo-controlled rising single-dose safety and tolerance study, aerosolized mometasone furoate was administered by a metered dose inhaler to eight healthy male volunteers. Doses were administered at 11 p.m. and plasma cortisol concentrations were measured during the following 24-hour period.

[2] = HPLC/radio-flow metabolite profiling of plasma, urine and fecal extracts after ^3H-MF; format: in vivo, normal healthy male volunteers
Text: The substantial minimization of the systemic effect of mometasone furoate administered intranasally or by oral inhalation has been measured by High Performance Liquid Chromatography (HPLC) metabolite profiling of plasma radioactivity of mometasone furoate, its substantially complete (>98%) first-pass metabolism in the liver and by a minimal reduction in cortisol secretion levels.
(§1) Plasma, urine, expired air filters, Respirgard and fecal samples were collected and assayed for radioactivity content. The limit of quantitation (LOQ) for plasma radioactivity ranged from 0.103 to 0.138 ng eq/ml., except for the nasal spray treatment where the LOQ was 0.025 ng eq/ml. Selected plasma, urine and fecal samples were analyzed for metabolite profiles.
Selected plasma, urine and fecal extracts were analyzed by high performance liquid chromatography (HPLC) with radio-flow monitoring to determine metabolite profiles. […] Approximately 1.5% of the 3 hr. plasma radioactivity was associated with parent drug indicating extensive first past metabolism and rapid inactivation by the liver. In contrast, following intravenous administration, approximately 39% of the 3 hr. plasma radioactivity was associated with parent drug. Approximately 12% and 33% of the 3 hr. plasma radioactivity was associated with parent drug following administration of the MDI and Gentlehaler, respectively. In general, the plasma concentrations of radioactivity following the nasal and oral suspension routes of administration were too low for metabolite profiling.
Hydrolysis of plasma and urine was performed with an enzyme preparation containing both β-glucuronidase and aryl sulfatase. These experiments yielded modest changes in the HPLC metabolite profiles that were consistent with the hydrolytic release of conjugated metabolites.

[3] = system: plasma cortisol; assay: Phase I rising single-dose study, aqueous nasal spray suspension, 24-hour plasma cortisol; format: in vivo, healthy male volunteers; conditions: intranasal single doses 1000, 2000 and 4000 mcg at 11 pm
Procedure: Several Phase I studies have been completed using the aqueous nasal spray suspension formulation of mometasone furoate monohydrate. In a randomized, third party-blinded, placebo-controlled rising single-dose safety and tolerance study, the aqueous nasal spray suspension formulation was administered to eight healthy male volunteers. Doses were administered at 11 pm, and plasma cortisol concentrations were measured during the following 24-hour period.

[4] = Aqueous suspension once-a-day in allergic rhinitis (summary statement); format: in vivo
Text: In treating allergic and non-allergic rhinitis, the aqueous suspension of mometasone furoate may be administered intranasally by inserting an appropriate device (such as the pump spray bottle used to deliver […]® Nasal Spray as well as the spray bottle disclosed in the Schering Corporation Industrial Design Deposit DM/026304 registered Jun. 1, 1993) into each nostril. Active drug is then expelled (nasal spray device) or could be nasally inhaled (sniffed) as a powder. Efficacy is generally assessed in a double blind fashion by a reduction in nasal symptoms (e.g., sneezing, itching, congestion, and discharge). Other objective measurements (e.g., nasal peak flow and resistance) can be used as supportive indices of efficacy. For treatment of allergic and/or inflammatory diseases of the lower airways and lung parenchyma especially diseases such as asthma, chronic obstructive pulmonary disease (“COPD”), granulomatus diseases of the lungs and lower airway passage, non-malignant proliferative disease of the lungs e.g., idiopathic pulmonary fibrosis, hypersensitivity pneumonitis and bronchopulmonary dysplasia the following dosage ranges of mometasone furoate may be used: […] Typically 2-4 mL of the aqueous suspension of mometasone furoate monohydrate may be placed in a plastic nebulizer container and the patient would inhale for 2-10 minutes.

[5] = system: patients with asthma requiring treatment with inhaled corticosteroids; assay: Randomized double-blinded multicenter Phase II study, MDI BID for 4 weeks; format: in vivo
Procedure: In a recently completed, randomized, double-blinded multicenter, Phase II study, 395 patients with asthma requiring treatment with inhaled corticosteroids were randomized to one of the five treatment groups: mometasone furoate (MDI 112 mcg/day, 400 mcg/day or 1000 mcg/day, beclomethasone dipropionate (BDP) 336 mcg/day, or placebo. All treatment regimens consisted of BID dosing for 4 weeks. PROVENTIL inhalation aerosol (albuterol, USP) was supplied as rescue medication.
Efficacy was evaluated by spirometry and by physician and patient evaluation of asthma signs and symptoms. The forced expiratory volume in one second (FEV1), forced vital capacity (FVC), and forced expiratory flow between 25% to 75% (FEF25%−75%) were measured at each visit by the investigator. The peak expiratory flow rate (PEFR) was measured twice daily (AM and PM) by the patient. FEV1 at endpoint of treatment (last evaluable visit) was the primary measure of efficacy. The investigator (at all visits) and the patient (twice daily) rated wheezing, tightness in chest, shortness of breath, and cough on a scale from 0 (None) to 6 (Incapacitating). In addition, the investigator rated the overall condition of asthma on the same scale at each visit, and the patient kept a diary of the total number of asthma attacks each day, the number of night awakenings due to asthma, and the total number of puffs of Proventil (protocol-permitted rescue medication) used. The actual value and changes from Baseline were analyzed for each visit.

[6] = Drug metabolism/clinical pharmacology study: absorption and excretion of total radioactivity after ^3H-MF by various routes; format: in vivo, normal healthy male volunteers
Procedure: In addition, a single-dose absorption, excretion and metabolism study using 200 mcg of ^3H-mometasone furoate as the nasal spray formulation was conducted in 6 normal male volunteers. When systemic absorption (based on urinary excretion) was compared to an intravenously administered dose of ^3H-mometasone furoate, it was 8%.
A drug metabolism and clinical pharmacology study was conducted by administering (by various routes) tritium-labeled mometasone furoate (“^3H-MF”) to 6 groups of 6 normal male volunteers in each group. Blood and urine samples were collected for measurement of total drug (including metabolites).
The objectives of these studies in male volunteers were to determine the absorption, metabolism and excretion of ^3H-labeled mometasone furoate (“^3H-MF”) following administration by oral swallow as a solution and as an aqueous suspension of the monohydrate, by oral inhalation as a suspension from a standard metered dose inhaler (MDI) and from a metered dose inhaler containing a spacer device (Gentlehaler), by nasal inhalation as an aqueous suspension of the mometasone furoate monohydrate from a nasal spray unit and by intravenous injection as a solution.
Thirty-six (n=6 per treatment group) normal healthy male volunteers between the ages of 19 and 40 yr. (average 29 yr.) having weights in accordance with current actuarial tables (+10%) were enrolled in these single dose studies. All subjects were determined to be in good health by their medical history, physical examinations, clinical and laboratory tests.
as §1
Pharmacokinetics—The mean (n=6) plasma concentrations of total radioactivity are illustrated in Summary FIG. 1 and the mean (n=6) pharmacokinetic parameters derived from total plasma radioactivity are presented in Table 2.

For `C[C@@H]1C[C@H]2[C@@H]3CCC4=CC(=O)C=C[C@]4(C)[C@@]3(Cl)[C@@H](O)C[C@]2(C)[C@@]1(OC(=O)c1ccco1)C(=O)CCl` [mometasone furoate], the “reduction of 24-hour area under the curve plasma cortisol profile (AUC 0-24) compared to placebo” value (from here on “reduction of 24-hour area”) ([1]; single dose 1000 mcg by MDI at 11 p.m.) was 13%, the “reduction of 24-hour area” value ([1]; single dose 2000 mcg by MDI at 11 p.m.) was 23% and the “reduction of 24-hour area” value ([1]; single dose 4000 mcg by MDI at 11 p.m.) was 36%. For the same compound, the extent of metabolism ([2]; all routes of administration) was “extensively metabolized”, the “first-pass metabolism in the liver” value ([2]; in vivo) was over 98% and the “detection of parent drug in plasma by metabolite profiling” value ([2]; intravenous injection or oral solution, not after oral or nasal suspensions) was “detectable in plasma by metabolite profiling”. The bioavailability ([2]; male, human, plasma, 1.03 mg/Subject, oral solution, extensive first pass metabolism, read-out: absolute bioavailability of unchanged mometasone furoate) was under 1%, the “effect on 24-hour area under the curve plasma cortisol profile (AUC 0-24) compared to placebo” value [3] was “did not significantly affect” and the “safety and efficacy in allergic rhinitis” value ([4]; 25 up to 1600 micrograms once-a-day) was “safe and effective”. For the same compound, the “dose dependence of treatment effect” value ([4]; once-a-day) was “no improvement in treatment is typically found above 400 micrograms a day”, the “total asthma scores, assessment of overall condition, therapeutic response” value ([5]; all doses) was “superiority of all mometasone furoate doses relative to placebo” and the “improvement of a.m. PEFR versus BDP” value ([5]; all doses, final week of treatment) was “significantly better than 336 mg dose of BDP”. For the same compound, the “FEV1 versus BDP 336 mcg/day” value ([5]; two higher doses (400, 1000 mcg/day), Days 14, 21 and 28) was “superior to beclomethasone dipropionate”, the “FEV1 versus low dose (112 mcg/day)” value ([5]; two higher doses, Day 21 and Day 28) was “significantly superior to the low mometasone furoate dose” and the safety and tolerability ([6]; all dosage forms, single dose) was “safe and well tolerated”. The bioavailability ([6]; male, human, plasma, inhaled or intranasal, 200 ug, nasal spray 200 mcg, single dose, read-out: bioavailability of mometasone furoate) was under 1% and the “parent drug which reaches the bloodstream from the gastrointestinal tract” value ([6]; swallowed as oral suspension or by oral or nasal inhalation) was “less than 1%”.
